Data: patent US11332455B2, “α,β-unsaturated amide compound” (KYOWA KIRIN CO., LTD., priority 2015, dated 2022)

Experiments:
Assay in all cases: Cell growth inhibitory effect, cell counting kit 8, 6 days
Assay type in all cases: cell-based
[1] = system: NCI-H226 cells, a human mesothelioma cell line; conditions: 144 h, 6 days incubation
Text: (§1) Cell growth inhibitory effect on human mesothelioma, human liver cancer, human ovarian cancer, and […]
(§2) NCI-H226 cells, a human mesothelioma cell line (ATCC, CRL-5826), NCI-H322 cells, a human lung cancer cell line (the European Collection of Authenticated Cell Cultures, 95111734), OVTOKO cells, a human ovarian cancer cell line (JCRB cell bank, JCRB1048) and HuH28, a human liver cancer cell line (JCRB cell bank, JCRB0426) were each subcultured by keeping the cell density under 80% in a RPMI1640 culture medium with 10% fetal bovine serum (FBS). NCI-H226 cells, NCI-H322 cells and SSP-25 cells were each suspended in the RPM11640 culture medium mentioned above, and plated to a 96-well flat-bottom plate at 500 cells/well in each well, and incubated at 37° C. in an incubator with 5% CO2 for one day. After the incubation, the evaluation of cell growth inhibitory activity was started. OVTOKO cells were suspended in the RPMI1640 culture medium mentioned above, and plated to a 96-well flat-bottom plate at 250 cells/well in each well, and incubated it at 37° C. in an incubator with 5% CO2 for one day. After the incubation, the evaluation of the cell growth inhibitory activity was started. The next day, a test compound was serially diluted to 5 times of its final concentration in the RPM11640 culture medium mentioned above, and the diluted solution was added to each well. In this case, the final concentration of DMSO in each well was adjusted to 0.1%. After the test compound was added, cells were incubated at 37° C. in an incubator with 5% CO2 for 6 days. At the addition of the test compound and 6 days after the addition, the cell counting measurement was performed using a cell counting kit 8 (made by DOJINDO) according to a protocol equivalent to DOJINDO's recommendation. A reagent contained in the kit was added to each plate and color reaction was performed for 2 or 3 hours at 37° C. in an incubator with 5% CO2. After the reaction, an absorbance at wavelength of 450 nm was measured using a microplate reader. A growth inhibition rate was calculated according to the following formula, from which the concentration of a test compound at which cell growth was inhibited by 50% (GI50 value) was determined.

[2] = system: NCI-H322 cells, a human lung cancer cell line; conditions: 144 h, 6 days incubation
Text: as §1, §2

[3] = system: HuH28, a human liver cancer cell line; conditions: 144 h, HuH28 cells, 6 days incubation
Text: as §1, §2

[4] = group 100 nmol/L to 1 μmol/L (upper bound given in μmol/L)

| SMILES | GI50 ([1]; group less than 100 nmol/L) [nM] | GI50 [2] [nM] | GI50 [3] [nM] | GI50 [1, 4] [nM] |
| --- | --- | --- | --- | --- |
| C=CC(=O)N[C@H]1CC[C@@H](Oc2cccc(Cl)c2)c2ncccc21 (relative stereo) [Compound 68, cis-N-{8-(3-Chlorophenoxy)-5,6,7,8-tetrahydroquinolin-5-yl}acrylamide] | < 100 | < 1000 | < 3000 |  |
| C=CC(=O)NC1CCOc2cc(Oc3ccc(C(F)(F)F)cc3)ccc21 (stereo not drawn) [Compound 5, N-[7-{4-(trifluoromethyl)phenoxy}chroman-4-yl]acrylamide] | < 100 | < 1000 | < 3000 |  |
| C=CC(=O)NC1CCOc2c1ccc(Oc1ccc(C(F)(F)F)cc1)c2C (stereo not drawn) [Compound 28, N-[8-Methyl-7-{4-(trifluoromethyl)phenoxy}chroman-4-yl]acrylamide] | < 100 | < 1000 | < 3000 |  |
| C=CC(=O)Nc1cncc(Oc2cccc(C(F)(F)F)c2)c1 [Compound 95, N-[5-{3-(Trifluoromethyl)phenoxy}pyridin-3-yl]acrylamide] | < 100 | < 1000 | < 3000 |  |
| C=CC(=O)Nc1cncc(Oc2ccc(C(F)(F)F)cc2)c1 [Compound 96, N-[5-{4-(Trifluoromethyl)phenoxy}pyridin-3-yl]acrylamide] | < 100 | < 1000 | < 3000 |  |
| C=CC(=O)Nc1cncc(Oc2cncc(C(F)(F)F)c2)c1 [Compound 107, N-(5-[{5-(Trifluoromethyl)pyridin-3-yl}oxy]pyridin-3-yl)acrylamide] | < 100 | < 1000 | < 3000 |  |
| C=CC(=O)Nc1cncc(Oc2ccnc(C(F)(F)F)c2)c1 [Compound 108, N-(5-[{2-(Trifluoromethyl)pyridin-4-yl}oxy]pyridin-3-yl)acrylamide] | < 100 | < 1000 | < 3000 |  |
| C=CC(=O)Nc1ccc(Oc2ccccc2)c2ncccc12 [Compound 111, N-(8-Phenoxyquinolin-5-yl)acrylamide] | < 100 | < 1000 | < 3000 |  |
| C=CC(=O)Nc1ccc(Oc2ccccc2)c2nc(C)ccc12 [Compound 112, N-(2-Methyl-8-phenoxyquinolin-5-yl)acrylamide] | < 100 | < 1000 | < 3000 |  |
| C=CC(=O)Nc1ccc(Oc2cccc(Cl)c2)c2ncccc12 [Compound 114, N-{8-(3-Chlorophenoxy)quinolin-5-yl}acrylamide] | < 100 | < 1000 | < 3000 |  |
| C=CC(=O)Nc1ccc(Oc2ccc(Cl)cc2)c2nc(C)ccc12 [Compound 117, N-{8-(4-Chlorophenoxy)-2-methylquinolin-5-yl}acrylamide] | < 100 | < 1000 | < 3000 |  |
| C=CC(=O)Nc1ccc(OCC2CCC(F)(F)CC2)c2ncccc12 [Compound 126, N-[8-{(4,4-Difluorocyclohexyl)methoxy}quinolin-5-yl]acrylamide] | < 100 | < 1000 | < 3000 |  |
| C=CC(=O)NC1COc2c(cccc2Oc2cnc(C(F)(F)F)nc2)C1 (stereo not drawn) [Compound 155, N-(8-[{2-(Trifluoromethyl)pyrimidin-5-yl}oxy]chroman-3-yl)acrylamide] | < 100 | < 1000 | < 3000 |  |

Continued, values first:

| GI50 ([1]; group less than 100 nmol/L) [nM] | GI50 [2] [nM] | GI50 [3] [nM] | GI50 [1, 4] [nM] | SMILES |
| --- | --- | --- | --- | --- |
| < 100 | < 1000 | < 3000 |  | C=CC(=O)N[C@H]1CC[C@@H](Oc2ccc(C(F)(F)F)cc2)c2nc(OC)ccc21 (relative stereo) [Compound 179, cis-N-[2-Methoxy-8-{4-(trifluoromethyl)phenoxy}-5,6,7,8-tetrahydroquinolin-5-yl]acrylamide] |
| < 100 | < 1000 | < 3000 |  | C=CC(=O)N[C@H]1CC[C@@H](Oc2ccc(C(F)(F)F)cc2)c2nc(C3CC3)ccc21 (relative stereo) [Compound 185, cis-N-[2-Cyclopropyl-8-{4-(trifluoromethyl)phenoxy}-5,6,7,8-tetrahydroquinolin-5-yl]acrylamide] |
| < 100 | < 1000 | < 3000 |  | C=CC(=O)N[C@H]1CC[C@@H](Oc2ccc(C(F)(F)F)c(F)c2)c2nc(Cl)ccc21 (relative stereo) [Compound 187, cis-N-[2-Chloro-8-{3-fluoro-4-(trifluoromethyl)phenoxy}-5,6,7,8-tetrahydroquinolin-5-yl]acrylamide] |
| < 100 | < 1000 | < 3000 |  | C=CC(=O)N[C@H]1CC[C@@H](Oc2ccc(C(F)(F)F)cn2)c2nc(Cl)ccc21 (relative stereo) [Compound 189, cis-N-(2-Chloro-8-[{5-(trifluoromethyl)pyridin-2-yl}oxy]-5,6,7,8-tetrahydroquinolin-5-yl)acrylamide] |
| < 100 | < 1000 | < 3000 |  | C=CC(=O)N[C@@H]1CC[C@H](Oc2ccc(C(F)(F)F)cc2)c2ncc(Cl)cc21 (relative stereo) [Compound 190, N-((5R*,8S*)-3-Chloro-8-(4-(trifluoromethyl)phenoxy)-5,6,7,8-tetrahydroquinolin-5-yl)acrylamide] |
| < 100 | < 1000 | < 3000 |  | C=CC(=O)NCc1ccc(Oc2ccc(Cl)cc2)c2ncccc12 [Compound 134, N-[{8-(4-Chlorophenoxy)quinolin-5-yl}methyl]acrylamide] |
| < 100 | < 1000 | < 3000 |  | C=CC(=O)NCc1ccc(Oc2cccc(C(F)(F)F)c2)c2ncccc12 [Compound 137, N-([8-{3-(Trifluoromethyl)phenoxy}quinolin-5-yl]methyl)acrylamide] |
| < 100 | < 1000 | < 3000 |  | C=CC(=O)NCc1ccc(Oc2ccc(C(F)(F)F)cc2)c2ncccc12 [Compound 138, N-([8-{4-(Trifluoromethyl)phenoxy}quinolin-5-yl]methyl)acrylamide] |
| < 100 | < 1000 | < 3000 |  | C=CC(=O)NCc1ccc(Oc2ccc(C(F)(F)F)cc2)c2nc(Cl)ccc12 [Compound 139, N-([2-Chloro-8-{4-(trifluoromethyl)phenoxy}quinolin-5-yl]methyl)acrylamide] |
| < 100 | < 1000 | < 3000 |  | C=CC(=O)NCc1ccc(Oc2ccc(C(F)(F)F)nc2)c2ncccc12 [Compound 143, N-{(8-[{6-(Trifluoromethyl)pyridin-3-yl}oxy]quinolin-5-yl)methyl}acrylamide] |
| < 100 | < 1000 | < 3000 |  | C=CC(=O)NCc1cc(Oc2ccc(C(F)(F)F)nc2)nc2ccccc12 [Compound 149, N-{(2-[{6-(Trifluoromethyl)pyridin-3-yl}oxy]quinolin-4-yl)methyl}acrylamide] |
| < 100 | < 1000 | < 3000 |  | C=CC(=O)NCc1cc(Oc2ccnc(Cl)c2)nc2ccccc12 [Compound 150, N-([2-{(2-Chloropyridin-4-yl)oxy}quinolin-4-yl]methyl)acrylamide] |
| < 100 | < 1000 | < 3000 |  | C=CC(=O)NCc1cc(Oc2ccnc(C(F)(F)F)c2)nc2ccccc12 [Compound 151, N-{(2-[{2-(Trifluoromethyl)pyridin-4-yl}oxy]quinolin-4-yl)methyl}acrylamide] |
|  | < 1000 | < 3000 | 100 to 1000 | C=CC(=O)NC1CCOc2c1ccc(Oc1ccc(F)c(F)c1)c2OC (stereo not drawn) [Compound 164, N-{7-(3,4-Difluorophenoxy)-8-methoxychroman-4-yl}acrylamide] |
| < 100 | < 1000 | < 3000 |  | C=CC(=O)NC1CCOc2c1ccc(Oc1ccc(C(F)(F)F)nc1)c2Cl (stereo not drawn) [Compound 168, N-(8-Chloro-7-[{6-(trifluoromethyl)pyridin-3-yl}oxy]chroman-4-yl)acrylamide] |
| < 100 | < 1000 | < 3000 |  | C=CC(=O)NC1CCOc2c1ccc(Oc1ccc(C(F)(F)F)nc1)c2Br (stereo not drawn) [Compound 169, N-(8-Bromo-7-[{6-(trifluoromethyl)pyridin-3-yl}oxy]chroman-4-yl)acrylamide] |
| < 100 | < 1000 | < 3000 |  | C=CC(=O)NCc1ccc(Oc2ccc(Cl)cc2)c2c1CCCO2 [Compound 176, N-[{8-(4-Chlorophenoxy)chroman-5-yl}methyl]acrylamide] |
|  | < 1000 | < 3000 | 100 to 1000 | Nc1cncc(OCC2CCC(F)(F)CC2)c1 [Compound 192, 5-[(4,4-Difluorocyclohexyl)methoxy]pyridin-3-amine] |
